Results reported in patent US20180078576A1, “SULPHATED XYLANS FOR TREATMENT OR PROPHYLAXIS OF RESPIRATORY DISEASES” (Paradigm Biopharmaceuticals Limited, priority 2007, published 2018).

Tests used:
Assay type in all cases: cell-based
[1] = target: recombinant human IL-2 (rhIL-2) (Homo sapiens, UniProt P60568); assay: IL-2 dependent CTL-Luc cell proliferation
Excerpt: The murine cytotoxic T lymphocytic line (CTLL) is a subclone of T cells derived from a C57bl/6 mouse. The cells require interleukin-2 (IL-2) for growth and are used to assay for its presence in conditioned media. The cells are responsive to both murine and human IL-2. CTLL cells have been transfected with the firefly luciferase gene contained in the expression vector, pPGK-puromycin-luciferase (Coombe et al, 1998, supra). The positive transfectants are cloned to produce a line with good luciferase expression and these cells are called CTL-Luc. The proliferation assays are carried out in 96-well microplates suitable for such assays (Falcon). […] The cells are counted with a Coulter Z2 Particle Counter and Size Analyzer (Coulter Electronics, England) and routinely 1.6×10^4 cells are added to microplate wells that contain either no recombinant human IL-2 (rhIL-2) (negative control) or various dilutions of rhIL-2. When the effect of PPS, or other sulfated polysaccharides is to be measured, the wells also contain various concentrations of these molecules.
The CTL-Luc cells proliferate for 24 hours at 37° C. in a humidified atmosphere, after which the luciferase activity is measured by the addition of 50 μl of luciferase substrate buffer (50 mM Tris-HCl, pH 7.8, 15 mM MgSO4, 33.3 mM DTT, 0.1 mM EDTA, 0.5 mM Na-luciferin, 0.5 mM ATP, 0.25 mM lithium Co A and 0.5% v/v Triton X-100). […]

IL-13 = IL-13 (Homo sapiens, UniProt P35225); assay: IL-13 dependent proliferation of TF-1 cells
Sequence of IL-13 (P35225 25-146): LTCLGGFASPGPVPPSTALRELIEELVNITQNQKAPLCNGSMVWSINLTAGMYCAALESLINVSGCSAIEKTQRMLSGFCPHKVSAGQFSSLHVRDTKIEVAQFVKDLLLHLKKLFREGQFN
Excerpt: IL-13 is a cytokine with a key role in asthma and allergic disease (including allergic rhinitis) and it seems particularly important in […] the airway hyperreactivity seen with asthma (Wills-Karp, Immunol. Rev. 202:175-190, 2004). […] Pentosan polysulfate (PPS) and a DP5 sulfated xylan inhibited the proliferation of a human IL-13 responsive cell line. This occurs at very low doses and is not due to a toxic effect of the PPS because other, similarly sulfated polysaccharides, at the same concentrations of IL-13 and polysaccharide have no effect. These experiments utilize the TF-1 cells. TF-1 cells were originally established from a bone marrow sample from a person with severe pancytopenia. […]
The proliferation assays are carried out in 96-well microplates suitable for such assays (Falcon). […] The cells are counted with a Coulter Z2 Particle Counter and Size Analyzer (Coulter Electronics, England) and routinely 2.5×10^4 cells are added to microplate wells that contain either no IL-13 (negative control) or various dilutions of IL-13. When the effect of PPS is to be measured, the wells also contain various concentrations of this molecule. The cells proliferate for 48 hours at 37° C. in a humidified atmosphere, after which the number of cells present is quantified by staining with the AQUEOUS ONE dye (30 μl/well) for 3 hours and then absorbance is read at 490 nm.

human GM-CSF = human GM-CSF (Homo sapiens, UniProt P04141); assay: GM-CSF dependent TF-1.8 cell proliferation; details: 10 μg/ml and 1 μg/ml, GM-CSF 0.025 ng/ml, FIG. 7
Sequence of human GM-CSF (P04141 18-144): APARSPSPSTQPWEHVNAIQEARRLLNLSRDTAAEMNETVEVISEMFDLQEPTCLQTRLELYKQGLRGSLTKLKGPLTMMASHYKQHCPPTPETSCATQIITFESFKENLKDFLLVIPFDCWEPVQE
Experimental: TF-1.8 cells were derived from TF-1 cells that respond to human GM-CSF (granulocyte-macrophage colony stimulating factor). TF-1.8 cells retained their responsiveness to GM-CSF. Routinely 2.5×10^4 cells are added to microplate wells that contain either no GM-CSF (negative control) or various dilutions of GM-CSF. The cells are cultured for 48 hours at 37° C. in a humidified atmosphere, after which the luciferase activity is measured by the addition of 50 μl of luciferase substrate buffer (50 mM Tris-HCl, pH 7.8, 15 mM MgSO4, 33.3 mM DTT, 0.1 mM EDTA, 0.5 mM Na-luciferin, 0.5 mM ATP, 0.25 mM lithium Co A and 0.5% v/v Triton X-100). Immediately after the addition of the luciferase buffer the plate is assayed for luciferase activity. Light emissions are detected on a Victor 1420 Multi-label counter (Wallac, Turku, Finland). A titration of GM-CSF established that these cells are dependent upon this growth factor (FIG. 6). When the effect of PPS, or other sulfated polysaccharides is to be measured, the wells also contain various concentrations of these molecules as well as the GM-CSF.

Sequence of recombinant human IL-2 (rhIL-2) (P60568 21-153): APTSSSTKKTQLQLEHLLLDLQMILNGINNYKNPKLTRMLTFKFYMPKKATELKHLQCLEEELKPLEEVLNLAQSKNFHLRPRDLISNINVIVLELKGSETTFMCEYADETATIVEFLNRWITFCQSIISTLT

Pentosan polysulfate [PPS]
Effect on proliferation of CTL-Luc cells obtained with rhIL-2 ([1]; 10 μg/ml or 1 μg/ml, rhIL-2 1.25 ng/ml, FIG. 9): no effect | Toxicity to cytokine dependent lymphocytic cell lines ([1]; IL-2 and GM-CSF responsive cell lines, 10 and 1 μg/ml): not toxic | Inhibition of IL-13 dependent proliferation of TF-1 cells (in words) (IL-13; FIG. 16, IL-13 2.5 ng/ml): markedly inhibit | IL-13 mediated cell proliferation blocked (IL-13; PPS concentrations of 5-10 μg/ml, TF-1 cells, 48 hours): 75-80% | Effect on TF-1.8 cell proliferation obtained with GM-CSF (human GM-CSF): no effect
